In this test the target is Recombinant human ATX (Homo sapiens (Human), UniProt Q13822). The experiment in a line: ATX inhibition assay (choline release, Amplex Red fluorescence). Format: biochemical. Conditions: ATX 10 nM, LPC 18:1 10 μM, 37° C., 20 min pre-incubation; mean of n≧2. The method, boiled down:
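Activity was taken from the slope of resorufin fluorescence (530/590 nm, read every 2 min for 40 min at 37 °C) produced by choline liberated from 10 μM oleoyl LPC.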
On to `Cc1nnn(Cc2cc(Cl)ccc2/C=C/C(=O)N2CC(c3nnc(C)o3)C2)n1` [Example 85, (E)-3-(4-Chloro-2-((5-methyl-2H-tetrazol-2-yl)methyl)phenyl)-1-(3-(5-methyl-1,3,4-oxadiazol-2-yl)azetidin-1-yl)prop-2-en-1-one], for which the IC50 came out at 289 nM. On to `Cc1nnn(Cc2cc(C(F)(F)F)ccc2/C=C/C(=O)N2CCC(c3nnc(C4CC4)o3)CC2)n1` [Example 86, (E)-1-(4-(5-Cyclopropyl-1,3,4-oxadiazol-2-yl)piperidin-1-yl)-3-(2-((5-methyl-2H-tetrazol-2-yl)methyl)-4-(trifluoromethyl)phenyl)prop-2-en-1-one], for which the half-maximal inhibitory concentration (IC50) was 4.8 nM. In the case of `Cc1nnn(Cc2cc(C(F)(F)F)ccc2/C=C/C(=O)N2CCC(N(C)C(=O)c3ccc(F)cc3)CC2)n1` [Example 87] it was 19 nM; in that of `Cc1noc(CN2CCN(C(=O)/C=C/c3ccc(C(F)(F)F)cc3Cn3nnc(C)n3)CC2)n1` [Example 88, (E)-1-(4-((3-Methyl-1,2,4-oxadiazol-5-yl)methyl)piperazin-1-yl)-3-(2-((5-methyl-2H-tetrazol-2-yl)methyl)-4-(trifluoromethyl)phenyl)prop-2-en-1-one], 16 nM.

As for `Cc1nnn(Cc2cc(C(F)(F)F)ccc2/C=C/C(=O)N2CCN(Cc3ccn(C)n3)CC2)n1` [Example 89, (E)-1-(4-((1-Methyl-1H-pyrazol-3-yl)methyl)piperazin-1-yl)-3-(2-((5-methyl-2H-tetrazol-2-yl)methyl)-4-(trifluoromethyl)phenyl)prop-2-en-1-one], the IC50 turned out to be 3.5 nM.

Consider `CNC(=O)[C@@H]1CCCN1C(=O)/C=C/c1ccc(C(F)(F)F)cc1Cn1nnc(C)n1` [Example 90, (S,E)-N-Methyl-1-(3-(2-((5-methyl-2H-tetrazol-2-yl)methyl)-4-(trifluoromethyl)phenyl)acryloyl)pyrrolidine-2-carboxamide], for which the IC50 is 49 nM.

With `CNC(=O)[C@@H]1CC(F)(F)CN1C(=O)/C=C/c1ccc(C(F)(F)F)cc1Cn1nnc(C)n1` [Example 91, (S,E)-4,4-Difluoro-N-methyl-1-(3-(2-((5-methyl-2H-tetrazol-2-yl)methyl)-4-(trifluoromethyl)phenyl)acryloyl)pyrrolidine-2-carboxamide], the IC50 was determined as 160 nM. In the case of `CCc1nnc(C2CCN(C(=O)/C=C/c3ccc(C(F)(F)F)cc3Cn3nnc(C)n3)CC2)o1` [Example 92, (E)-1-(4-(5-Ethyl-1,3,4-oxadiazol-2-yl)piperidin-1-yl)-3-(2-((5-methyl-2H-tetrazol-2-yl)methyl)-4-(trifluoromethyl)phenyl)prop-2-en-1-one] it was 3.6 nM; in that of `Cc1nnn(Cc2cc(C(F)(F)F)ccc2/C=C/C(=O)N2CCN(Cc3noc(C)n3)CC2)n1` [Example 93, (E)-1-(4-((5-Methyl-1,2,4-oxadiazol-3-yl)methyl)piperazin-1-yl)-3-(2-((5-methyl-2H-tetrazol-2-yl)methyl)-4-(trifluoromethyl)phenyl)prop-2-en-1-one], 10 nM; in that of `CCc1nnc(C2CCN(C(=O)/C=C/c3ccc(Cl)cc3Cn3nnc(C)n3)CC2)o1` [Example 94, (E)-3-(4-Chloro-2-((5-methyl-2H-tetrazol-2-yl)methyl)phenyl)-1-(4-(5-ethyl-1,3,4-oxadiazol-2-yl)piperidin-1-yl)prop-2-en-1-one], 10 nM. Regarding `Cc1cc(CC(=O)N(C)C2CCN(C(=O)/C=C/c3ccc(C(F)(F)F)cc3Cn3nnc(C)n3)CC2)on1` [Example 95, (E)-N-Methyl-N-(1-(3-(2-((5-methyl-2H-tetrazol-2-yl)methyl)-4-(trifluoromethyl)phenyl)acryloyl)piperidin-4-yl)-2-(3-methylisoxazol-5-yl)acetamide], the IC50 stood at 25 nM. Regarding `Cc1nnn(Cc2cc(Cl)ccc2/C=C/C(=O)N2CCC(c3nnc(C4CC4)o3)CC2)n1` [Example 96, (E)-3-(4-Chloro-2-((5-methyl-2H-tetrazol-2-yl)methyl)phenyl)-1-(4-(5-cyclopropyl-1,3,4-oxadiazol-2-yl)piperidin-1-yl)prop-2-en-1-one], the IC50 came to 8.3 nM.

Take `Cc1nnn(Cc2cc(C(F)(F)F)ccc2/C=C/C(=O)N2CCC(N3CCCCC3=O)CC2)n1` [Example 97, (E)-1′-(3-(2-((5-Methyl-2H-tetrazol-2-yl)methyl)-4-(trifluoromethyl)phenyl)acryloyl)-[1,4′-bipiperidin]-2-one]: the IC50 is 23 nM. As for `Cc1nnn(Cc2cc(Cl)ccc2/C=C/C(=O)N2CC[C@@H](c3nnc(C)o3)C[C@H]2C)n1` [Example 98, (E)-3-(4-Chloro-2-((5-methyl-2H-tetrazol-2-yl)methyl)phenyl)-1-((2R,4R)-2-methyl-4-(5-methyl-1,3,4-oxadiazol-2-yl)piperidin-1-yl)prop-2-en-1-one], the IC50 is 66 nM.

`COCC1CCN(C(=O)/C=C/c2ccc(C(F)(F)F)cc2Cn2nnc(C)n2)CC1` [Example 99, (E)-1-(4-(Methoxymethyl)piperidin-1-yl)-3-(2-((5-methyl-2H-tetrazol-2-yl)methyl)-4-(trifluoromethyl)phenyl)prop-2-en-1-one]: the IC50 worked out at 25 nM.

For the molecule `Cc1nnn(Cc2cc(Cl)ccc2/C=C/C(=O)N2CCC(c3nnc(C(C)C)o3)CC2)n1` [Example 100, (E)-3-(4-Chloro-2-((5-methyl-2H-tetrazol-2-yl)methyl)phenyl)-1-(4-(5-isopropyl-1,3,4-oxadiazol-2-yl)piperidin-1-yl)prop-2-en-1-one], the IC50 is 3.9 nM.

As for `Cc1cc(CN2CCN(C(=O)/C=C/c3ccc(C(F)(F)F)cc3Cn3nnc(C)n3)CC2)on1` [Example 101, (E)-3-(2-((5-Methyl-2H-tetrazol-2-yl)methyl)-4-(trifluoromethyl)phenyl)-1-(4-((3-methylisoxazol-5-yl)methyl)piperazin-1-yl)prop-2-en-1-one], the IC50 came to 5 nM. In the case of `CCS(=O)(=O)N1CCN(C(=O)/C=C/c2ccc(C(F)(F)F)cc2Cn2nnc(C)n2)CC1` [Example 102, (E)-1-(4-(Ethylsulfonyl)piperazin-1-yl)-3-(2-((5-methyl-2H-tetrazol-2-yl)methyl)-4-(trifluoromethyl)phenyl)prop-2-en-1-one], the IC50 turned out to be 53 nM. In the case of `Cc1nnn(Cc2cc(C(F)(F)F)ccc2/C=C/C(=O)N2CCC(c3nnc(C4CCC4)o3)CC2)n1` [Example 103, (E)-1-(4-(5-Cyclobutyl-1,3,4-oxadiazol-2-yl)piperidin-1-yl)-3-(2-((5-methyl-2H-tetrazol-2-yl)methyl)-4-(trifluoromethyl)phenyl)prop-2-en-1-one], the IC50 was 5.3 nM. For the molecule `Cc1nnn(Cc2cc(Cl)ccc2/C=C/C(=O)N2CCN(Cc3noc(C)n3)C[C@H]2C)n1` [Example 104, (R,E)-3-(4-Chloro-2-((5-methyl-2H-tetrazol-2-yl)methyl)phenyl)-1-(2-methyl-4-((5-methyl-1,2,4-oxadiazol-3-yl)methyl)piperazin-1-yl)prop-2-en-1-one], the IC50 is 3.9 nM. To `Cc1nnn(Cc2cc(Cl)ccc2/C=C/C(=O)N2CCC(Cn3nnc(C)n3)CC2)n1` [Example 109, (E)-3-(4-Chloro-2-((5-methyl-2H-tetrazol-2-yl)methyl)phenyl)-1-(4-((5-methyl-2H-tetrazol-2-yl)methyl)piperidin-1-yl)prop-2-en-1-one] belongs 16 nM; to `Cc1nnn(Cc2cc(Cl)ccc2/C=C/C(=O)N2CCC(c3nnc(CC4CCOCC4)o3)CC2)n1` [Example 110, (E)-3-(4-Chloro-2-((5-methyl-2H-tetrazol-2-yl)methyl)phenyl)-1-(4-(5-((tetrahydro-2H-pyran-4-yl)methyl)-1,3,4-oxadiazol-2-yl)piperidin-1-yl)prop-2-en-1-one], 5.2 nM. To `COC[C@@H]1CCCN1C(=O)/C=C/c1ccc(C(F)(F)F)cc1Cn1nnc(C)n1` [Example 111, (S,E)-1-(2-(Methoxymethyl)pyrrolidin-1-yl)-3-(2-((5-methyl-2H-tetrazol-2-yl)methyl)-4-(trifluoromethyl)phenyl)prop-2-en-1-one] belongs 47 nM; to `Cc1nnn(Cc2cc(C(F)(F)F)ccc2/C=C/C(=O)N2CCC(N(C)S(=O)(=O)C3CC3)CC2)n1` [Example 112, (E)-N-Methyl-N-(1-(3-(2-((5-methyl-2H-tetrazol-2-yl)methyl)-4-(trifluoromethyl)phenyl)acryloyl)piperidin-4-yl)cyclopropanesulfonamide], 14 nM. With `Cc1noc(CN2CCN(C(=O)/C=C/c3ccc(Cl)cc3Cn3nnc(C)n3)[C@H](C)C2)n1` [Example 114, (R,E)-3-(4-Chloro-2-((5-methyl-2H-tetrazol-2-yl)methyl)phenyl)-1-(2-methyl-4-((3-methyl-1,2,4-oxadiazol-5-yl)methyl)piperazin-1-yl)prop-2-en-1-one], the IC50 came out at 3.9 nM.

Take `Cc1nnn(Cc2cc(C(F)(F)F)ccc2/C=C/C(=O)N2CCN(Cc3nonc3C)CC2)n1` [Example 116, (E)-1-(4-((4-Methyl-1,2,5-oxadiazol-3-yl)methyl)piperazin-1-yl)-3-(2-((5-methyl-2H-tetrazol-2-yl)methyl)-4-(trifluoromethyl)phenyl)prop-2-en-1-one]: the IC50 is 33 nM.

For `Cc1nnn(Cc2cc(C(F)(F)F)ccc2/C=C/C(=O)N2CCC[C@H]2C)n1` [Example 117, (R,E)-3-(2-((5-Methyl-2H-tetrazol-2-yl)methyl)-4-(trifluoromethyl)phenyl)-1-(2-methylpyrrolidin-1-yl)prop-2-en-1-one], the IC50 came out at 263 nM. In the case of `Cc1nnn(Cc2cc(C(F)(F)F)ccc2/C=C/C(=O)N2CCC(N(C)S(=O)(=O)c3ccc(F)cc3)CC2)n1` [Example 118, (E)-4-Fluoro-N-methyl-N-(1-(3-(2-((5-methyl-2H-tetrazol-2-yl)methyl)-4-(trifluoromethyl)phenyl)acryloyl)piperidin-4-yl)benzenesulfonamide] it was 24 nM; in that of `COc1ccc(CN(C)C2CCN(C(=O)/C=C/c3ccc(C(F)(F)F)cc3Cn3nnc(C)n3)CC2)cc1` [Example 119, (E)-1-(4-((4-Methoxybenzyl)(methyl)amino)piperidin-1-yl)-3-(2-((5-methyl-2H-tetrazol-2-yl)methyl)-4-(trifluoromethyl)phenyl)prop-2-en-1-one], 47 nM.

The term IC50 denotes the concentration that gives 50% inhibition.

These data come from patent US9763957B2, “Autotaxin inhibitors” (Novartis AG, priority 2013, dated 2017).
